Measurements taken from patent publication US5077280A, “Treatment of viral infections” (priority 1988, dated 1991).

Tests used:
[1] = test system: bone marrow cell growth (granulocyte-macrophages and erythrocytes); settings: patients; cited from earlier work
[2] = test system: human bone marrow cells; test: toxicity for human bone marrow cells; assay type: cell-based
[3] = test system: human CFU-GM cells; test: human CFU-GM cell proliferation; assay type: cell-based; settings: concentrations as high as 100 μM
[4] = test system: bone marrow cells; assay type: cell-based, human; settings: 5 μM AZT for 2 hours; 50-100 μM of uridine (and also cytidine)
[5] = test system: viral replication (reverse transcriptase); test: suppression of viral replication (assessed by inhibition of reverse transcriptase); assay type: cell-based; settings: combination molar ratios (uridine/AZT) as high as 10,000/1
[6] = in vivo; cited from earlier work

Structure (SMILES): Cc1cn([C@H]2C[C@H](N=[N+]=[N-])[C@@H](CO)O2)c(=O)[nH]c1=O [AZT, 3'-azido-3'deoxythymidine]
- common complication of AZT therapy [1]: suppression of bone marrow cell growth

Structure (SMILES): O=c1[nH]c(=O)n(COCCO)cc1Cc1ccccc1 [BAU, benzylacyclouridine]
- toxicity per se for human bone marrow cells [2]: non-toxic
- effect on human CFU-GM cell proliferation [3]: no substantial effect

Structure (SMILES): Nc1ccn([C@@H]2O[C@H](CO)[C@@H](O)[C@H]2O)c(=O)n1 [cytidine]
- reversal of toxic effects of antiviral nucleoside analogues [4]: essentially completely reversed

Structure (SMILES): O=c1ccn([C@@H]2O[C@H](CO)[C@@H](O)[C@H]2O)c(=O)[nH]1 [uridine]
- impairment of suppression of viral replication [5]: no impairment of suppression of viral replication
- clearance by the body [6]: cleared rapidly
- reversal of toxic effects of antiviral nucleoside analogues [4]: essentially completely reversed
